Source: patent US20080160552A1, “Methods and Compounds for Treating Inflammation” (priority 2006, published 2008)

Test system: HPAE cells
Assay: Transendothelial electrical resistance (TER) measurement after thrombin
Type: cell-based, Human
Details: pretreated with 1 uM Go6976 for 30 min, 50 nM thrombin
From the text: FIG. 7. Effects of C1-S96A mutant on MLC phosphorylation, actin stress fiber formation, and loss of endothelial barrier function in response to thrombin. A-B, MLC phosphorylation in response to thrombin in cells transfected with C1 or C1-S96A-GDI-1 mutant. Cells were stimulated with thrombin for indicated time and lysates were Western blotted with anti-phospho-MLC (top) or anti-GFP Abs to determine MLC phosphorylation. […] C, Actin stress fiber formation in response to thrombin in cells transducing GFP-tagged C1 or GFP-tagged C1-S96A mutant. Cells were stimulated with thrombin for 5 min and fixed followed by staining with Alexa-labeled phallodin to determine actin stress fiber formation by confocal imaging. […] TER values are calculated as change in resistance over the value at time zero (n=7). […] After 30 hrs cells were pretreated with 1 uM Go6976 to inhibit PKCα for 30 min and changes in transendothelial electrical resistance (TER) after addition of 50 nM thrombin were determined. TER values are calculated as change in resistance over the value at time zero (n=8). […]
Transendothelial resistance measurement: The time course of endothelial cell retraction in real time, a measure of increased endothelial permeability, was measured according to the procedure described previously (16, 23).

Compound: Cn1c2ccccc2c2c3c(c4c5ccccc5n(CCC#N)c4c21)CNC3=O [G66976]
- thrombin-induced decrease in TER (HPAE cells transducing C1-GDI-1 mutant): significantly reduced
- thrombin-induced decrease in TER (HPAE cells transducing S91A (S96A) GDI-1 mutant): not seen
